The subject of one data set is Rats. Nature of the data set: Indian ink spreading after subcutaneous injection in rats. The data set is classed as in vivo, rat. Conditions: heparin 250 to 2500 USP/ml with leech hyaluronidase. On the procedure:
Leech hyaluronidase (100 IU/ml) was mixed 1:1 with Indian ink in 20 mM MES, 0.1M NaCl pH 5.0, buffer in the presence or absence of heparin (250 to 2500 USP/ml). Rats were injected subcutaneously with 50 microlitres of this mixture and spreading allowed to occur over a period of 1 to 3 hours. The rats were sacrificed and the skin removed for observation of the area of spreading.

In data set [1] the test system is mammalian testicular hyaluronidase. Kind of data set: Reducing sugar assay of mammalian testicular hyaluronidase preincubated with heparin. It is filed as biochemical. To be noted: heparin above 3 USP/ml; MTH 75 IU/ml; preincubated one hour at 25° C. On the procedure:
Leech hyaluronidase (68 IU/ml was preincubated for one hour at 25° C. in the presence of concentrations of heparin (0-2500 USP/1 ml) in 20 mM methanesulphonic acid (MES), 0.1M NaCl, pH 5.0 buffer and then added to hyaluronic acid (5 mg/ml) and the incubation continued for one hour at 37° C. The generation of reducing sugars was determined by terminating the reactions by the addition of 1:1 3,5-dinitrosalicylic acid reagent (100 ml: 5% w/v dinitrosalicylic acid in 2M NaOH plus 250 ml: 60% w/v sodium potassium tartrate in water, made up to 500 ml with water) and heating for 5 min in vigorously boiling water. After heating, assay tubes were rapidly cooled to ambient temperature and absorbances at 540 nm measured spectrophotometrically. Suitable blanks and no-enzyme controls were included in the assay. The results are expressed as a percentage of the absorbances obtained in control incubations containing no heparin. […] MTH (75 IU/ml) was preincubated for one hour at 25° C. with heparin (0 to 250 USP/ml) in 20 mM MES, 0.1M NaCl pH 5.0, buffer and then added (1:10 final dilution) to hyaluronate and incubated for a further one hour at 37° C. Activity was determined using the reducing sugar assay (described above) and is expressed as a percentage of controls without heparin. […]

The subject of a further data set is whole blood. Nature of the data set: Whole blood clotting time after incubation of heparin with or without leech hyaluronidase. On the procedure: Heparin (0-150 USP/ml) was incubated for one hour at […] either with or without leech hyaluronidase (50 IU/ml) and in 20 mM MES, 0.1M NaCl, pH 5.0 buffer; then whole blood was added to determine the effect on clottability.

Data set [2] can be described thus: Clotting time of patient plasma before and after heparinisation. Conditions: patient plasma after heparinisation with 30,000 USP/24 h; 40 seconds before. The data set is classed as in vivo, human. The procedure:
B) Leech hyaluronidase (200 IU/ml) was preincubated for one hour at 25° C. with and without plasma and heparinised plasma in 20 mM MES, 0.1M NaCl, pH 5.0 buffer. Plasma was obtained from a patient before and after heparinisation with 30,000 USP/24 h resulting in an increase in the clotting time of 40 seconds to 80 seconds. Incubations were continued by addition to hyaluronic acid (see section A, above) and reducing sugars determined as above (Example 1).

In data set [3] the test system is leech hyaluronidase. Kind of data set: Reducing sugar assay of leech hyaluronidase preincubated with heparin. To be noted: heparin up to 2500 USP/ml; preincubated one hour at 25° C.; enzyme 68 IU/ml; FIG. 1. It is filed as biochemical. The procedure: (§1) Leech hyaluronidase (68 IU/ml was preincubated for one hour at 25° C. in the presence of concentrations of heparin (0-2500 USP/1 ml) in 20 mM methanesulphonic acid (MES), 0.1M NaCl, pH 5.0 buffer and then added to hyaluronic acid (5 mg/ml) and the incubation continued for one hour at 37° C. The generation of reducing sugars was determined by terminating the reactions by the addition of 1:1 3,5-dinitrosalicylic acid reagent (100 ml: 5% w/v dinitrosalicylic acid in 2M NaOH plus 250 ml: 60% w/v sodium potassium tartrate in water, made up to 500 ml with water) and heating for 5 min in vigorously boiling water. After heating, assay tubes were rapidly cooled to ambient temperature and absorbances at 540 nm measured spectrophotometrically. Suitable blanks and no-enzyme controls were included in the assay. The results are expressed as a percentage of the absorbances obtained in control incubations containing no heparin.

Data set [4] has as its system leech hyaluronidase. Nature of the data set: Leech hyaluronidase activity with heparin, with and without hementin. The data set is classed as biochemical. Conditions: 60 min. The procedure: as §1
B) Leech hyaluronidase (75 IU/ml) was mixed with and without hementin (180 IU/ml) (where IU is defined as one microgram of fibrinogen incoagulated/min/37° C.) end incubated with heparin (1.5-1500 USP/ml) for one hour at 25° C. prior to addition to hyaluronic acid (2 mg/ml) and further incubation for one hour at 37° C. Reducing sugar levels were determined (see Example 1) and the results expressed as a percentage of controls containing no heparin. (Table 3).

Data set [5] relates to mammalian testicular hyaluronidase. Conditions: Mathews & Dorfman, Physiological Review, 35; cited from earlier work.
Data set [6] concerns leech hyaluronidase. Nature of the data set: Leech hyaluronidase activity in the presence of tPA with and without heparin. It is filed as biochemical. Conditions: tPA range of concentrations; presence or absence of heparin 200 USP/ml; FIG. 5. On the procedure:
as §1
A) Leech hyaluronidase (68 IU/ml) was mixed with and without heparin (200 USP/ml) and human tissue plasminogen activator (tPA) in a range of concentrations ([…]) and with hyaluronic acid (5 mg/ml) and incubated for 1 h at 37° C. Reducing sugars were determined (Example 1) and results expressed as a percentage of controls containing no tPA.

Regarding Heparin, the “effect of heparin on enzyme-induced ink spreading” value with Rats is recorded as “not significantly affected”. Also, the “mammalian testicular hyaluronidase activity, percentage of controls without heparin” value in data set [1] is on record as “completely inhibited”. Also, the “Whole Blood Clotting Time” value in the data set with whole blood (Heparin 1.0 USP/ml, Leech Enzyme (50IU/ml)) is given as 14.5 min; with whole blood (Heparin 1.0 USP/ml, without leech enzyme), 14.5 min; with whole blood (Heparin 2.5 USP/ml, Leech Enzyme (50IU/ml)) it was 24.5 min; in the data set on whole blood (Heparin 2.5 USP/ml, without leech enzyme), 24.0 min; with whole blood (Heparin 5 USP/ml, Leech Enzyme (50IU/ml)) it was “NC (no clot formation before 20 minutes at 37° C.)”; with whole blood (Heparin 5 USP/ml, without leech enzyme) it was “NC (no clot formation before 20 minutes at 37° C.)”. In addition, the “Whole Blood Clotting Time” value in the data set with whole blood (Heparin 10 USP/ml, Leech Enzyme (50IU/ml)) is “NC (no clot formation before 20 minutes at 37° C.)”; in the data set on whole blood (Heparin 10 USP/ml, without leech enzyme), “NC (no clot formation before 20 minutes at 37° C.)”; with whole blood (Heparin 20 USP/ml, Leech Enzyme (50IU/ml)), “NC (no clot formation before 20 minutes at 37° C.)”; with whole blood (Heparin 20 USP/ml, without leech enzyme), “NC (no clot formation before 20 minutes at 37° C.)”. In data set [2], this substance displayed a clotting time of 80 s. The “leech hyaluronidase activity, percentage of control incubations containing no heparin” value in the data set with leech hyaluronidase [3] was “no significant effect”. The “leech hyaluronidase activity, % Control (no heparin)” value in the data set with leech hyaluronidase [4] (Heparin 1.5 USP/ml, With Hementin (180 IU/ml)) came to 103%; with leech hyaluronidase [4] (Heparin 1.5 USP/ml, Without Hementin) it was 97.5%; in the data set on leech hyaluronidase [4] (Heparin 15 USP/ml, With Hementin (180 IU/ml)), 93.8%; with leech hyaluronidase [4] (Heparin 15 USP/ml, Without Hementin), 100%; with leech hyaluronidase [4] (Heparin 150 USP/ml, With Hementin (180 IU/ml)) it was 100%; with leech hyaluronidase [4] (Heparin 150 USP/ml, Without Hementin), 103%. The “leech hyaluronidase activity, % Control (no heparin)” value was found to be 109% in the data set on leech hyaluronidase [4] (Heparin 1500 USP/ml, With Hementin (180 IU/ml)) and 103% in the data set with leech hyaluronidase [4] (Heparin 1500 USP/ml, Without Hementin). Also, the “inhibition of mammalian testicular hyaluronidase by heparin” value in data set [5] is reported as “inhibited competitively”.
As to “tPA: human tissue plasminogen activator, a clot-lytic agent”, the “leech hyaluronidase activity, percentage of controls containing no tPA” value in the data set on leech hyaluronidase [6] is “no effect”.
